“And” between values parts separate entries of the source, which are not always exact repeats. Equal entries are not always repeated.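 Interpolation was linear, between the two tested concentrations surrounding the appropriate level; five concentrations were tested over 48 hours in 96-well plates. GI50 marks 50% less growth. At the TGI there is no net growth.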
How the values were obtained:
Test in all cases: NCI tumour cell line growth inhibition, 48 h
NCI-H23 lung = test system: NCI-H23 lung
SR leukemia = test system: SR leukemia
LOX IMVI melanoma = test system: LOX IMVI melanoma
SNB-19 CNS = test system: SNB-19 CNS
A549 NSCLC = test system: A549 NSCLC
K-562 leukemia = test system: K-562 leukemia
HOP-62 NSCLC = test system: HOP-62 NSCLC
HCC-2998 colon = test system: HCC-2998 colon
MOLT-4 leukemia = test system: MOLT-4 leukemia
T-47D breast = test system: T-47D breast

Compound	GI50 (NCI-H23 lung) [µM]	TGI (NCI-H23 lung) [µM]	GI50 (SR leukemia) [µM]	TGI (SR leukemia) [µM]	GI50 (LOX IMVI melanoma) [µM]	TGI (LOX IMVI melanoma)	GI50 (SNB-19 CNS) [µM]	TGI (SNB-19 CNS) [µM]	GI50 (A549 NSCLC) [µM]	TGI (A549 NSCLC) [µM]	GI50 (K-562 leukemia) [µM]	TGI (K-562 leukemia) [µM]	GI50 (HOP-62 NSCLC) [µM]	TGI (HOP-62 NSCLC) [µM]	GI50 (HCC-2998 colon) [µM]	TGI (HCC-2998 colon)	GI50 (MOLT-4 leukemia) [µM]	TGI (MOLT-4 leukemia) [µM]	GI50 (T-47D breast) [µM]	TGI (T-47D breast) [µM]
COc1cc(OC)c(C(=O)/C=C/c2cccc(C#N)c2)c(OC)c1	1.21	4.59	0.241	> 50	1.23	5.18 µM	1.67	6.61	1.43	6.1	0.384	> 50	1.33	4.55	2.17	7.34 µM	1.13	> 50	1.17	5.53
OCCn1cnc2c(SCc3ccccc3)ncnc21	–	> 100	–	> 100	–	> 100 µM	–	> 100	–	> 100	–	> 100	–	> 100	–	> 100 µM	–	–	–	> 100
O=c1c(O)c(-c2ccc(O)c(O)c2)oc2cc(O)cc(O)c12	9.65	50	3.57	> 100	11.4	> 84.1 µM and 35.9 µM	13.1	> 100	19.3	> 100	5.2	> 100	15.6	> 100	16	51 µM and > 100 µM	13	> 100	23.8	> 100
Cc1cn2c(/C=C3/C(=O)Nc4ccc(O)cc43)c(C)nc2s1	7.12	> 68.9	0.316	13.6	4.46	99.6 µM	5.47	> 100	19.9	> 80.6	0.362	> 61.8	2.89	> 68	1.76	5.01 µM	4.46	48.6	2.64	25.5
COC(=O)c1cc2ccccc2c2c3c(ccc12)OCO3	161	> 1000	167	> 1000	772	> 1000 µM	73	990	117	> 1000	658	> 1000	26.2	91.7	562	> 1000 µM	794	> 1000	44.2	> 1000
C#CCNCCN1C(=O)c2ccc3c4c(ccc(c24)C1=O)C(=O)N(CCNCC#C)C3=O	3.56	15.6	4.53	29.8	1.76	8.08 µM	3.56	10.6	2.69	11.6	5.25	50	4.1	14.9	2.49	10 µM	3.54	16.7	4.16	14.8
Cc1ccc(C(=O)NC2CCC2)cc1-c1ccc(C(=O)NCC2CC2)cc1	> 25	> 25	> 25	> 25	> 25	> 25 µM	> 25	> 25	> 25	> 25	> 25	> 25	> 25	> 25	> 25	> 25 µM	> 25	> 25	12.9	> 25
Nc1ccccc1C#C/C=C\C#Cc1cccc(O)c1	2.44	9.38	1.55	6.13	0.579	10.8 µM	17.1	> 55.7	2.78	15.7	3.81	30.6	2.63	12.1	3.98	9.08 µM	3.21	23.7	7.3	> 60.8
CC(C)CCNCC(O)Cn1c2ccccc2c2ccccc21 (centres undefined)	16.4	31.9	2.45	6.38	5.6	18.5 µM	13.8	28.8	16.4	31.9	3.69	13.2	15.4	29.7	2.06	4.22 µM	10.2	25.9	3.99	14.6
CN(C)c1ccc(C(=NO)c2ccc(N(C)C)cc2)cc1	5.42	> 100	0.32	> 100	6.29	> 100 µM	4.04	> 100	3.34	> 100	0.418	> 100	6.1	> 100	8.06	> 100 µM	3.02	> 100	5.59	> 100
O=C1C(SCCO)=C(SCCO)C(=O)N1c1ccc(-c2ccccc2)cc1	4.38	13.3	0.182	> 100	2.7	8.44 µM	19.8	43.1	10.2	27	> 50	> 100	4.88	10.6	3.65	9.87 µM	18.9	73.1	1.71	7.43
Cc1ccc(-c2nc3nc(-c4ccccc4)nc(N4CCNCC4)c3o2)cc1	1.8	3.53	0.223	0.611	0.177	0.323 µM	1.06	2.58	0.788	2.5	0.235	0.521	1.48	2.98	1.4	2.86 µM	0.238	0.573	0.832	2.6
